Reference: patent US10613104B2, “Assay to determine anticoagulants in blood or blood plasma” (ZAFENA AB, priority 2014, dated 2020)

Test system: prothrombin time (PT) of normal plasma NKP
Experiment: Three wet-chemistry Owren PT methods (Simple Simon PT; 20, 10, 5 μL sample in 200 μL reagent) on normal plasma NKP with added anticoagulant
Type: biochemical
Procedure: Experimental work was performed with the commercially available ambient room temperature coagulation instrument, Simple Simon P T Zafena A B, Linköping, Sweden, with functions described in EP 1 636 595 B2. One instrument or reader was used for each PT-method. Alternatively, the same instrument could be used for all PT-methods.
The three instruments were used together standing next to one another on a laboratory bench in thermal equilibrium with the ambient room temperature of the laboratory.
The ambient room temperature in the laboratory where the work was done varied between 21° C. and 26° C.
The PT-reagent was the one delivered together with lot N223M of the Simple Simon PT product, a reagent of Owren-type that thus contains effective amounts of thromboplastin, fibrinogen and FV (the thromboplastin of rabbit brain origin and the fibrinogen and the FV of bovine blood plasma origin). Other Owren type reagents could also be used.
The reagent was in portions of 200 μL to which sample, citrated blood or citrated blood plasma, was added and mixed. The addition was by an end-to-end plastic capillary mounted at one end of a tubular body with a displacement mechanism in the other end, this to allow convenient mixing of sample and reagent. Such Mixxocaps with 10 μL capillaries are supplied with the Simple Simon PT product. To perform the experiments described, some Mixxocaps were fitted with 20 μL capillaries, or 5 μL capillaries instead of the 10 μL capillaries with which they were supplied by the manufacturer.
The ratios between the volume of blood or blood plasma to the volume of liquid reagent used in the experiments were 1:11, 1:21 and 1:41. Other ratios lying within the range of 1:5 and 1:100 or within the range of 1:2 and 1:200 could be used.
Anticoagulated normal plasma was the NKP product GHI-163 lot 10188, MediRox AB, Nyköping, Sweden.
It was further relevant that all three PT-methods were calibrated, according to the invention, to show INR 1.000 for unadulterated NKP, and INR 1.357 for the NKP 1:2. All primary INR values, the results that appeared on the instrument screens (one instrument or reader was used for each PT-method), were therefore transformed to the corrected/calibrated INRc by the formula A*INRexp(B) where a and b were selected to given NKP and NKP 1:2 their desired values, 1.000 and 1.357, respectively. The INR-value of the NKP 1:2 was calculated by the formula of Lindahl et al for the INR of corresponding to PT-activity of 50% (half of the 100% that equates to INR 1.000). Above the INR calibrated columns (INRc) there is an upper number and a lower number, these are the above mentioned A and B, respectively.
As deemed relevant the upper number is selected to make NKP 1:2 to show INRc 1.357.
Clinical levels of interest range from 50 to 1000 μg/L in blood plasma.
In the selected calibration INR 1.000 and INR 1.357 were assigned to NKP and NKP 1:2, respectively, which was the same relevant calibration as selected in Examples 1 and 3 above.

[1] = dabigatran 52 μg/L in NKP plasma
[2] = dabigatran 157 μg/L in NKP plasma
[3] = dabigatran 236 μg/L in NKP plasma
[4] = dabigatran 355 μg/L in NKP plasma
[5] = dabigatran 533 μg/L in NKP plasma
[6] = dabigatran 800 μg/L in NKP plasma
[7] = dabigatran 1000 μg/L in NKP plasma

With dabigatran the “INR 10 μL sample” value [1] was 1.09, the “INR 20 μL sample” value [1] was 1.16 and the “INRc 5 μL sample” value [1] was 1.01. For the same substance, the “INRc 10 μL sample” value [1] was 1.03, the “INRc 20 μL sample” value [1] was 1.16 and the INRo [1] was 0.98. For the same substance, the “ΔINRc 10 μL − 5 μL” value [1] was 0.03, the “ΔINRc 20 μL − 5 μL” value [1] was 0.15 and the “INR 10 μL sample” value [2] was 1.19. The “INR 20 μL sample” value [2] was 1.31, the “INRc 5 μL sample” value [2] was 1.08 and the “INRc 10 μL sample” value [2] was 1.14. For the same substance, the “INRc 20 μL sample” value [2] was 1.36, the INRo [2] was 1.02 and the “ΔINRc 10 μL − 5 μL” value [2] was 0.05. The “ΔINRc 20 μL − 5 μL” value [2] was 0.28, the “INR 5 μL sample” value [3] was 1.17 and the “INR 10 μL sample” value [3] was 1.30. For the same substance, the “INR 20 μL sample” value [3] was 1.53, the “INRc 5 μL sample” value [3] was 1.12 and the “INRc 10 μL sample” value [3] was 1.26. The “INRc 20 μL sample” value [3] was 1.67, the INRo [3] was 0.98 and the “ΔINRc 10 μL − 5 μL” value [3] was 0.14. The “ΔINRc 20 μL − 5 μL” value [3] was 0.55, the “INR 5 μL sample” value [4] was 1.28 and the “INR 10 μL sample” value [4] was 1.44. The “INR 20 μL sample” value [4] was 1.82, the “INRc 5 μL sample” value [4] was 1.22 and the “INRc 10 μL sample” value [4] was 1.41. The “INRc 20 μL sample” value [4] was 2.09, the INRo [4] was 1.03 and the “ΔINRc 10 μL − 5 μL” value [4] was 0.19. The “ΔINRc 20 μL − 5 μL” value [4] was 0.87, the “INR 5 μL sample” value [5] was 1.44 and the “INR 10 μL sample” value [5] was 1.70. The “INR 20 μL sample” value [5] was 2.38, the “INRc 5 μL sample” value [5] was 1.37 and the “INRc 10 μL sample” value [5] was 1.70. The “INRc 20 μL sample” value [5] was 2.98, the “ΔINRc 10 μL − 5 μL” value [5] was 0.33 and the “ΔINRc 20 μL − 5 μL” value [5] was 1.61. The “INR 5 μL sample” value [6] was 1.81, the “INR 10 μL sample” value [6] was 2.50 and the “INR 20 μL sample” value [6] was 4.22. The “INRc 5 μL sample” value [6] was 1.72, the “INRc 10 μL sample” value [6] was 2.62 and the “INRc 20 μL sample” value [6] was 6.36. For the same substance, the INRo [6] was 0.81, the “ΔINRc 10 μL − 5 μL” value [6] was 0.91 and the “ΔINRc 20 μL − 5 μL” value [6] was 4.64. For the same substance, the “INR 5 μL sample” value [7] was 2.53, the “INR 10 μL sample” value [7] was 3.55 and the “INR 20 μL sample” value [7] was 7.03. The “INRc 5 μL sample” value [7] was 2.39, the “INRc 10 μL sample” value [7] was 3.89 and the “INRc 20 μL sample” value [7] was 12.47. The INRo [7] was 0.88, the “ΔINRc 10 μL − 5 μL” value [7] was 1.51 and the “ΔINRc 20 μL − 5 μL” value [7] was 10.08. The “content at which the INRc-difference (20 μL minus 5 μL) reaches 0.5” value (normal plasma NKP, linear part of the graph (FIG. 8, FIG. 2)) was “about 200 μg/L”.
